Source: paper PMC10619477 (RSC Advances, 2023)
Marks after values point to notes of the source that are not given here.

Key:
[1] = in vitro; conditions: PAMPA
[2] = ABTS radical cationic decolorization assay; type: biochemical; conditions: read-out: ABTS (IC50); concentration that inhibits 50% of free radicals, mean ± SEM
[3] = DPPH radical scavenging assay; type: biochemical; conditions: for IC50: read-out: DPPH (IC50), mean ± SEM, three determinations; for DPPH inhibiting rate: in the presence of 0.5 mM compounds
[4] = from PAMPA-BBB Pe
[5] = test system: SH-SY5Y cells; conditions: MTT; for Cytotoxicity on SH-SY5Y cells (in words): 0–80 μM
[6] = test system: SH-SY5Y cells exposed to 100 μM H2O2; experiment: Protection of SH-SY5Y cells from H2O2-induced oxidative damage; type: cell-based, Human
[7] = test system: intracellular GSH in H2O2-injured SY5Y cells; experiment: Total glutathione; type: cell-based, Human; conditions: pretreatment with 10 μM, 100 μM H2O2
[8] = test system: intracellular ROS in H2O2-injured SY5Y cells; experiment: Intracellular ROS levels; type: cell-based, Human; conditions: 0.1, 1 or 10 μM, 100 μM H2O2 24 h, DCFH-DA
[9] = test system: MMP in H2O2-incubated SY5Y cells; experiment: Mitochondrial membrane potential assay; conditions: 10 μM, 100 μM H2O2 24 h, JC-1

Papp at 16 h, 100 mg mL^−1 [1] [×10⁻⁶ cm/s] | IC50 [2] [µM] | IC50 [3] [µM] | Compound | Prediction (penetration into CNS) [4] | further results
6.54 ± 0.81 | 21.6 ± 3.69 | 4.14 ± 1.09 | CCCCCCCCNC(=O)Cc1ccc(O)c(O)c1 [Compound 3q, 2-(3,4-Dihydroxyphenyl)-N-octylacetamide] | CNS+ (CNS+ is predicted as high BBB permeation with Pe (×10^−6 cm s^−1) > 4.33) | Cytotoxicity on SH-SY5Y cells (in words) [5]: strong growth inhibition
– | 13.6 ± 2.9 | 27.9 ± 4.55 | CCCCCCCC(=O)NCc1ccc(O)c(OC)c1 [Compound 3i, N-(4-Hydroxy-3-methoxybenzyl) octanamide] | – | –
9.23 ± 0.57 | 10.6 ± 1.28 | 5.06 ± 1.34 | CCCCCCCC(=O)NCc1ccc(O)c(O)c1 [Compound 3k, N-(3,4-Dihydroxybenzyl)octanamide] | CNS+ (CNS+ is predicted as high BBB permeation with Pe (×10^−6 cm s^−1) > 4.33) | H2O2-induced decrease of intracellular GSH (in words) [7]: blocked; cell viability under H2O2 (in words) ([6]; 0.1, 1 or 10 μM pretreatment, 100 μM H2O2): increased dose-dependently; viability at 10 µM ([6]; Homo sapiens, SH-SY5Y, read-out: cell viability): 90 ± 5.5%; intracellular ROS fluorescence intensity (in words) [8]: decreased gradually; H2O2-induced reduction of MMP (in words) [9]: blocked significantly; Cytotoxicity on SH-SY5Y cells (in words) [5]: little toxicity
– | 30.9 ± 2.79 | 185 ± 9.86 | CCCCCCCCNC(=O)Cc1ccc(O)c(OC)c1 [Compound 3o, 2-(4-Hydroxy-3-methoxyphenyl)-N-octylacetamide] | – | –
10.1 ± 0.34 | 22.7 ± 2.34 | 5.91 ± 0.77 | CCCCCCCCC(=O)NCc1ccc(O)c(O)c1 [Compound 3n, N-(3,4-Dihydroxybenzyl) nonanamide] | CNS+ (CNS+ is predicted as high BBB permeation with Pe (×10^−6 cm s^−1) > 4.33) | Cytotoxicity on SH-SY5Y cells (in words) [5]: strong growth inhibition
10.6 ± 0.38 | – | – | CCCCCCCCC(=O)NCc1ccc(OC)c(OC)c1 [Compound 3m, N-(3,4-Dimethoxybenzyl)nonanamide] | CNS+ (CNS+ is predicted as high BBB permeation with Pe (×10^−6 cm s^−1) > 4.33) | DPPH radical scavenging activity (in words) [3]: little radical scavenging activities; DPPH inhibiting rate [3]: 18.56 ± 2.33% ^c
11.2 ± 0.68 | – | – | CCCCCCNC(=O)Cc1ccc(OC)c(OC)c1 [Compound 3g, 2-(3,4-Dimethoxyphenyl)-N-hexylacetamide] | CNS+ (CNS+ is predicted as high BBB permeation with Pe (×10^−6 cm s^−1) > 4.33) | DPPH radical scavenging activity (in words) [3]: little radical scavenging activities; DPPH inhibiting rate [3]: 12.76 ± 2.54% ^c
– | 13.8 ± 2.87 | 8.7 ± 1.75 | O=c1c(O)c(-c2ccc(O)c(O)c2)oc2cc(O)cc(O)c12 [Quercetin, reference compound] | – | –
7.68 ± 0.47 | 18.6 ± 3.03 | 4.49 ± 0.74 | CCCCCCNC(=O)Cc1ccc(O)c(O)c1 [Compound 3h, 2-(3,4-Dihydroxyphenyl)-N-hexylacetamide] | CNS+ (CNS+ is predicted as high BBB permeation with Pe (×10^−6 cm s^−1) > 4.33) | –

More lines, now with the values behind:

Compound | Papp at 16 h, 100 mg mL^−1 [1] [×10⁻⁶ cm/s] | IC50 [2] [µM] | IC50 [3] [µM] | Prediction (penetration into CNS) [4] | further results
CCCCCCNC(=O)Cc1ccc(O)c(OC)c1 [Compound 3f, N-Hexyl-2-(4-hydroxy-3-methoxyphenyl)acetamide] | 6.24 ± 0.98 | 13.1 ± 1.47 | 139 ± 6.89 | CNS+ (CNS+ is predicted as high BBB permeation with Pe (×10^−6 cm s^−1) > 4.33) | –
CCCCCCCCNC(=O)Cc1ccc(OC)c(OC)c1 [Compound 3p, 2-(3,4-Dimethoxyphenyl)-N-octylacetamide] | – | – | – | – | DPPH radical scavenging activity (in words) [3]: little radical scavenging activities; DPPH inhibiting rate [3]: 30.48 ± 3.44% ^c
CC(C)CCCCCCC(=O)NCc1ccc(O)c(O)c1 [Compound 3c, N-(3,4-Dihydroxybenzyl)-8-methylnonanamide] | 8.45 ± 0.57 | 16.8 ± 2.1 | 7.33 ± 0.98 | CNS+ (CNS+ is predicted as high BBB permeation with Pe (×10^−6 cm s^−1) > 4.33) | Cytotoxicity on SH-SY5Y cells (in words) [5]: strong growth inhibition
OO [Compound H2O2, H2O2, reference compound] | – | – | – | – | cell viability of H2O2-treated SY5Y cells ([6]; 100 μM H2O2 alone, compared with control (100%)): 63.3 ± 4.5%; inhibition in SH-SY5Y cells ([5]; H2O2 at 100 μM): 38.1 ± 7.6%; effect on SH-SY5Y cell viability (in words) ([5]; H2O2 at 25 and 50 μM): no apparent inhibitory or promotive effects
COc1cc(CNC(=O)CCCCCCC(C)C)ccc1O [Compound 3b, Dihydrocapsaicin] | 5.96 ± 0.78 | 11.3 ± 1.55 | 50.9 ± 4.08 | – | –
Cn1c(=O)c2c(ncn2C)n(C)c1=O [Caffeine, reference compound] | 0.79 ± 0.1 | – | – | – | –
CCCCCCC(=O)NCc1ccc(OC)c(OC)c1 [Compound 3e, N-(3,4-Dimethoxybenzyl)heptanamide] | 10.8 ± 1.03 | – | – | CNS+ (CNS+ is predicted as high BBB permeation with Pe (×10^−6 cm s^−1) > 4.33) | DPPH radical scavenging activity (in words) [3]: little radical scavenging activities; DPPH inhibiting rate [3]: 27.33 ± 2.88% ^c
CCCCCCCC(=O)NCc1ccc(OC)c(OC)c1 [Compound 3j, N-(3,4-Dimethoxybenzyl)octanamide] | – | – | – | – | DPPH radical scavenging activity (in words) [3]: little radical scavenging activities; DPPH inhibiting rate [3]: 22.72 ± 5.47% ^c
COc1cc(CNC(=O)CCCC/C=C/C(C)C)ccc1O [Compound 3a, capsaicin, reference compound] | – | 16.9 ± 1.64 | 52.1 ± 3.21 | – | –
CCCCCCCCC(=O)NCc1ccc(O)c(OC)c1 [Compound 3l, N-(4-Hydroxy-3-methoxybenzyl)nonanamide] | – | 44.2 ± 4.65 | 27.2 ± 3.47 | – | –
C[C@]12CC[C@@H]3c4ccc(O)cc4CC[C@H]3[C@@H]1CC[C@@H]2O [Estradiol, reference compound] | 13.2 ± 0.51 | – | – | – | –
2-(3,4-Dimethoxyphenyl)-N-octylacetamide [Compound 3d] | – | 24.3 ± 3.62 | 67.6 ± 4.74 | – | –
